Common to all, as to format: in vivo
One data set relates to Plutella xylostella. Briefly: Activity against Plutella xylostella (diamond back moth), artificial diet, eggs. As to conditions: 192 h, application rate 200 ppm, 8 days after infestation, read-out: effect in at least one of the two categories (mortality or growth inhibition). The protocol: Example B9: Activity Against Plutella xylostella (Diamond Back Moth)
24-well microtiter plates with artificial diet were treated with aqueous test solutions prepared from 10′000 ppm DMSO stock solutions by pipetting. After drying, Plutella eggs were pipetted through a plastic stencil onto a gel blotting paper and the plate was closed with it. The samples were assessed for mortality and growth inhibition in comparison to untreated samples 8 days after infestation.

Data set [1] deals with Myzus persicae. The data set can be described thus: Activity against Myzus persicae (green peach aphid), feeding/contact activity, sunflower leaf discs. As to conditions: for mortality at 200 ppm: Myzus persicae, foliar, 144 h, application rate 200 ppm, feeding/contact, 6 days after infestation; for Mortality (%): Myzus persicae (feeding/contact). As to the method: Example B4: Activity Against Myzus persicae (Green Peach Aphid) Feeding/Contact Activity
Sunflower leaf discs were placed on agar in a 24-well microtiter plate and sprayed with aqueous test solutions prepared from 10′000 ppm DMSO stock solutions. After drying, the leaf discs were infested with an aphid population of mixed ages. The samples were assessed for mortality 6 days after infestation.

Data set [2] relates to Myzus persicae. Briefly: Activity against Myzus persicae (green peach aphid), systemic activity, pea seedlings. As to conditions: Myzus persicae. As to the method: Example B5: Activity Against Myzus persicae (Green Peach Aphid) Systemic Activity
Roots of pea seedlings infested with an aphid population of mixed ages were placed directly in the aqueous test solutions prepared from 10′000 DMSO stock solutions. The samples were assessed for mortality 6 days after placing seedlings in test solutions.

The next data set has as its system Bemisia tabaci. Briefly: Activity against Bemisia tabaci (cotton white fly), cotton leaf discs. As to conditions: for mortality at 200 ppm: foliar, 144 h, application rate 200 ppm, adult white flies, 6 days after incubation. As to the method:
Example B6: Activity Against Bemisia tabaci (Cotton White Fly)
Cotton leaf discs were placed on agar in 24-well microtiter plates and sprayed with aqueous test solutions prepared from 10′000 ppm DMSO stock solutions. After drying the leaf discs were infested with adult white flies. The samples were checked for mortality 6 days after incubation.

Another data set has as its system Chilo suppressalis. The data set can be described thus: Activity against Chilo suppressalis (striped rice stemborer), artificial diet. To be noted: 144 h, application rate 200 ppm, L2 larvae, 6 days after infestation. The protocol: Example B11: Activity Against Chilo suppressalis (Striped Rice Stemborer)
24-well microtiter plates with artificial diet were treated with aqueous test solutions prepared from 10′000 ppm DMSO stock solutions by pipetting. After drying, the plates were infested with L2 larvae (6-8 per well). The samples were assessed for mortality, anti-feeding effect, and growth inhibition in comparison to untreated samples 6 days after infestation. Control of Chilo suppressalis by a test sample is given when at least one of the categories mortality, anti-feedant effect, and growth inhibition is higher than the untreated sample.

For data set [3], the system named is Frankliniella occidentalis. Briefly: Activity against Frankliniella occidentalis (western flower thrips), sunflower leaf discs. To be noted: foliar, 168 h, application rate 200 ppm, mixed ages, 7 days after infestation. The protocol:
Example B8: Activity Against Frankliniella occidentalis (Western Flower Thrips)
Sunflower leaf discs were placed on agar in 24-well microtiter plates and sprayed with aqueous test solutions prepared from […] stock solutions. After drying the leaf discs were infested with a Frankliniella population of mixed ages. The samples were assessed for mortality 7 days after infestation.

In a further data set the test system is Diabrotica balteata. The data set can be described thus: Activity against Diabrotica balteata (corn root worm), maize sprouts. To be noted: for percent effect (mortality or growth inhibition) at 200 ppm: 96 h, application rate 200 ppm, L2 larvae, 4 days after infestation, read-out: effect in at least one of the two categories (mortality or growth inhibition). As to the method:
Example B3: Activity Against Diabrotica Balteata (Corn Root Worm)
Maize sprouts placed onto an agar layer in 24-well microtiter plates were treated with aqueous test solutions prepared from 10′000 ppm DMSO stock solutions by spraying. After drying, the plates were infested with L2 larvae (6 to 10 per well). The samples were assessed for mortality and growth inhibition in comparison to untreated samples 4 days after infestation.

Another data set relates to Spodoptera littoralis. Briefly: Activity against Spodoptera littoralis (Egyptian cotton leaf worm), cotton leaf discs. To be noted: foliar, 72 h, application rate 200 ppm, L1 larvae, 3 days after infestation, read-out: control (mortality, anti-feeding effect or growth inhibition). The essentials:
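Cotton leaf discs on agar sprayed with aqueous test solutions made from 10′000 ppm DMSO stocks, dried, then infested with five L1 larvae. Mortality, anti-feeding and growth inhibition scored versus untreated samples 3 days after infestation; control given when any category exceeds untreated.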

Where [4] appears, read: 144 h, test rate 24 ppm, systemic, 6 days after placing seedlings in test solutions.

In general, mortality refers to the percentage killed. High values mean fewer survivors, low ones more survivors.

As to `CCS(=N)(=O)c1cc(C2(C#N)CC2)cnc1-c1nc2cc(C(F)(F)F)ncc2n1C` (racemic) [Compound P10, 1-[5-(ethylsulfonimidoyl)-6-[3-methyl-6-(trifluoromethyl)imidazo[4,5-c]pyridin-2-yl]-3-pyridyl]cyclopropanecarbonitrile], the percent effect (mortality or growth inhibition) at 200 ppm with Plutella xylostella was no less than 80%. In addition, the mortality at 200 ppm in the data set on Myzus persicae [1] and with Bemisia tabaci was no less than 80% throughout. Also, the mortality at 24 ppm in the data set with Myzus persicae [2] (setting [4]) was no less than 80%. Further, the percent control (mortality, anti-feedant effect or growth inhibition) at 200 ppm with Chilo suppressalis was no less than 80%.
`CCS(=N)(=O)c1cc(OC(C)(C)C#N)cnc1-c1nc2cc(C(F)(F)F)n(C3CC3)c(=O)c2n1C` (single isomer, unassigned) [Compound P1-B, 2-[[6-[5-cyclopropyl-3-methyl-4-oxo-6-(trifluoromethyl)imidazo[4,5-c]pyridin-2-yl]-5-(ethylsulfonimidoyl)-3-pyridyl]oxy]-2-methyl-propanenitrile]: the percent effect (mortality or growth inhibition) at 200 ppm in the data set on Plutella xylostella was no less than 80%. In addition, the mortality at 200 ppm in data set [3] was no less than 80%.
On to `CCS(=N)(=O)c1cc(C2(C#N)CC2)cnc1-c1nc2cc(C(F)(F)F)nnc2n1C` (single isomer, unassigned) [Compound P2-A, 1-[5-(ethylsulfonimidoyl)-6-[7-methyl-3-(trifluoromethyl)imidazo[4,5-c]pyridazin-6-yl]-3-pyridyl]cyclopropanecarbonitrile], for which, in the data set with Myzus persicae [1] (concentration 3.125 ppm), the “Mortality (%)” value was 100%. Besides, the mortality at 200 ppm in the data set on Myzus persicae [1] and in the data set on Bemisia tabaci was no less than 80% in each case. The compound also registered a mortality at 24 ppm in the data set on Myzus persicae [2] (setting [4]) of no less than 80%. In the data set with Chilo suppressalis, this compound registered a percent control (mortality, anti-feedant effect or growth inhibition) at 200 ppm of no less than 80%.
On to `CCS(=N)(=O)c1cc(C2(C#N)CC2)ccc1-c1nc2cc(C(F)(F)F)cnc2n1C` (single isomer, unassigned) [Compound P6-A, 1-[3-(ethylsulfonimidoyl)-4-[3-methyl-6-(trifluoromethyl)imidazo[4,5-b]pyridin-2-yl]phenyl]cyclopropanecarbonitrile], for which the mortality at 200 ppm in the data set on Myzus persicae [1] and with Bemisia tabaci was no less than 80% in each case. In the data set on Myzus persicae [2] (setting [4]), this compound yielded a mortality at 24 ppm of no less than 80%. The same compound returned a mortality at 6 ppm in the data set with Myzus persicae [2] (Myzus persicae (systemic), concentration 6 ppm) of 80%. Further, the percent control (mortality, anti-feedant effect or growth inhibition) at 200 ppm in the data set with Chilo suppressalis was no less than 80%. The percent effect (mortality or growth inhibition) at 200 ppm in the data set on Diabrotica balteata is no less than 80%. The compound further showed a mortality at 50 ppm in the data set with Diabrotica balteata (concentration 50 ppm) of 80%.
For `CCS(=N)(=O)c1cc(OC(C)(C)C#N)cnc1-c1cn2cnc(SC(F)(F)F)cc2n1` (single isomer, unassigned) [Compound P7-B, 2-[[5-(ethylsulfonimidoyl)-6-[7-(trifluoromethylsulfanyl)imidazo[1,2-c]pyrimidin-2-yl]-3-pyridyl]oxy]-2-methyl-propanenitrile], the percent effect (mortality or growth inhibition) at 200 ppm with Plutella xylostella is no less than 80%. For the same compound, in the data set on Bemisia tabaci (concentration 50 ppm), the “Mortality (%)” value is reported as 80%. Also, the mortality at 200 ppm in data set [3] was no less than 80%.
On to `CCS(=N)(=O)c1cc(C2(C#N)CC2)cnc1-c1nc2cc(C(F)(F)F)n(OC)c(=O)c2n1C` (single isomer, unassigned) [Compound P8-B, 1-[5-(ethylsulfonimidoyl)-6-[5-methoxy-3-methyl-4-oxo-6-(trifluoromethyl)imidazo[4,5-c]pyridin-2-yl]-3-pyridyl]cyclopropanecarbonitrile], for which the percent effect (mortality or growth inhibition) at 200 ppm with Plutella xylostella was no less than 80%. In addition, in the data set with Chilo suppressalis, the percent control (mortality, anti-feedant effect or growth inhibition) at 200 ppm was no less than 80%.
Regarding `CCS(=N)(=O)c1cc(C2(C#N)CC2)cnc1-c1nc2cc(C(F)(F)F)ncc2n1C` (single isomer, unassigned) [Compound P10-B, 1-[5-(ethylsulfonimidoyl)-6-[3-methyl-6-(trifluoromethyl)imidazo[4,5-c]pyridin-2-yl]-3-pyridyl]cyclopropanecarbonitrile], the entries for the “Mortality (%)” value in the data set on Myzus persicae [1] (concentration 0.781 ppm) and in the data set with Bemisia tabaci (concentration 12.5 ppm) were 80% and 100%, respectively. In the data set on Chilo suppressalis, this compound registered a percent control (mortality, anti-feedant effect or growth inhibition) at 200 ppm of no less than 80%.
Consider `CCS(=N)(=O)c1cc(OC(C)(C)C#N)cnc1-c1cn2cnc(C(F)(F)F)cc2n1` (single isomer, unassigned) [Compound P11-A, 2-[[5-(ethylsulfonimidoyl)-6-[7-(trifluoromethyl)imidazo[1,2-c]pyrimidin-2-yl]-3-pyridyl]oxy]-2-methyl-propanenitrile], for which the percent effect (mortality or growth inhibition) at 200 ppm with Plutella xylostella and in the data set with Diabrotica balteata was no less than 80% throughout. Besides, the mortality at 200 ppm (in the data set with Myzus persicae [1]; in data set [3]) was no less than 80% throughout. In addition, the mortality at 24 ppm in the data set with Myzus persicae [2] (setting [4]) was no less than 80%; with Myzus persicae [2] (Myzus persicae (systemic), concentration 24 ppm) it was 100%.
On to `CCS(=N)(=O)c1cc(C(C)(C)C#N)cnc1-c1nc2cc(C(F)(F)F)cnc2n1C` (single isomer, unassigned) [Compound P12-B, 2-[5-(ethylsulfonimidoyl)-6-[3-methyl-6-(trifluoromethyl)imidazo[4,5-b]pyridin-2-yl]-3-pyridyl]-2-methyl-propanenitrile], for which the percent control (mortality, anti-feedant effect or growth inhibition) at 200 ppm in the data set with Chilo suppressalis is no less than 80%.
Turning to `CCS(=N)(=O)c1cc(OC(C)(C)C#N)cnc1-c1nc2cc(C(F)(F)F)ncc2n1C` (single isomer, unassigned) [Compound P13-B, 2-[[5-(ethylsulfonimidoyl)-6-[3-methyl-6-(trifluoromethyl)imidazo[4,5-c]pyridin-2-yl]-3-pyridyl]oxy]-2-methyl-propanenitrile], the “Mortality (%)” value with Myzus persicae [1] (concentration 12.5 ppm) and with Diabrotica balteata (concentration 50 ppm) was 100% each time. Also, the percent control (mortality, anti-feedant effect or growth inhibition) at 200 ppm with Spodoptera littoralis and in the data set with Chilo suppressalis was no less than 80% throughout.
With `CCn1c(C(F)(F)F)cc2nc(-c3ncc(C4(C#N)CC4)cc3S(=N)(=O)CC)n(C)c2c1=O` (single isomer, unassigned) [Compound P14-B, 1-[6-[5-ethyl-3-methyl-4-oxo-6-(trifluoromethyl)imidazo[4,5-c]pyridin-2-yl]-5-(ethylsulfonimidoyl)-3-pyridyl]cyclopropanecarbonitrile], the percent control (mortality, anti-feedant effect or growth inhibition) at 200 ppm in the data set on Chilo suppressalis is no less than 80%. Further, the “Mortality (%)” value in the data set with Diabrotica balteata (concentration 50 ppm) stood at 50%.
Regarding `CCS(=N)(=O)c1cc(C2(C#N)CC2)cnc1-c1nc2cc(C(F)(F)F)cnc2n1C` (single isomer, unassigned) [Compound P16-B, 1-[5-(ethylsulfonimidoyl)-6-[3-methyl-6-(trifluoromethyl)imidazo[4,5-b]pyridin-2-yl]-3-pyridyl]cyclopropanecarbonitrile], the “Mortality (%)” value in the data set with Myzus persicae [1] (concentration 3.125 ppm) was found to be 100%; with Bemisia tabaci (concentration 12.5 ppm), 80%. The percent control (mortality, anti-feedant effect or growth inhibition) at 200 ppm with Spodoptera littoralis and in the data set with Chilo suppressalis was no less than 80% each time.
On to `CCn1c(C(F)(F)F)cc2nc(-c3ncc(OC(C)(C)C#N)cc3S(=N)(=O)CC)n(C)c2c1=O` (single isomer, unassigned) [Compound P19-B, 2-[[6-[5-ethyl-3-methyl-4-oxo-6-(trifluoromethyl)imidazo[4,5-c]pyridin-2-yl]-5-(ethylsulfonimidoyl)-3-pyridyl]oxy]-2-methyl-propanenitrile], for which the mortality at 200 ppm in data set [3] is no less than 80%.

These data come from patent US20250081967A1, “PESTICIDALLY ACTIVE HETEROCYCLIC DERIVATIVES WITH SULFOXIMINE CONTAINING SUBSTITUENTS” (SYNGENTA CROP PROTECTION AG, priority 2021, published 2025).
